Assay results: patent US20110214190A1, “TRANSGENIC REPORTER MOUSE AND METHOD FOR USE” (priority 2008, published 2011)
Read-outs that look alike come from different tables or passages of the source. Peptide text beside a SMILES is read from it. * marks the point of attachment. Cbz = O=C(OCc1ccccc1)*

What was measured:
[1] = cited from earlier work
Nf-κβ signaling = assay: Nf-κβ inhibitors on LipidA induced Luc/mC expression in vivo; design: species or system mouse
Description: A signaling pathway known to activate NGAL expression was taken advantage of in order to examine whether Luc2/mC expression was reversible after cessation of the stimulus. […] Subsequently, Nf-κβ mediates NGAL transcription. […] In addition, the testis is one of the few sites that tonically expresses NGAL and Luc2/mC, and even this site was suppressed by these inhibitors.

PARP = conditions: after onset of acute hindlimb ischemia (post hoc), during I/R; cited from earlier work
[2] = system: cells from reporter kidneys; assay: NGAL-luciferase activity in primary cells from reporter kidneys; type: cell-based, mouse; conditions: plates seeded with cells from reporter kidneys
Description: NGAL di-fusion primary cells from whole organs. Whole kidney cells were obtained from the NGAL di-fusion reporter mice (8-12 weeks of age) using collagenase (Sigma) digestion, differential sieving and seeded at a density of 1×10^5 per well. Cells were washed with a buffered salt solution and grown overnight before exposure to TLR agonists, ROS inducing species or toxin. Plates were imaged in the Xenogen IVIS optical imaging system (Xenogen Corp., Almeda, Calif.) for NGAL-luciferase activity.
Bioluminescence and Fluorescence Imaging of mCherry and luciferase Expression in Living Mice and primary cell lines. For in vivo bioluminescence imaging, mice were anesthetized, and injected with 150 mg/kg of luciferin in PBS (pH 7) via IP injection that is allowed to distribute in awake animals for about 10 minutes. […] Regions of interest (ROIs) were drawn on the dorsal side of the animal and quantified by using Living Image Software version 3.1. Counts detected in the ROIs by the CCD camera digitizer can by converted to physical units of radiance in photons/s/cm2/steradian. […] NGAL reporter primary cells were first imaged for mCherry activity with block excitation and block emission and NGAL-luciferase activity was quantified by detection of light emitted after cell lysis and incubation with luciferin. […]

cyst growth = conditions: polycystic kidney disease model; cited from earlier work
NGAL expression = assay: Cell stressors, NGAL expression; type: cell-based; conditions: H202 1 mmol/L for 4 hours
NGAL reporter ES cells = assay: NGAL-luciferase responsiveness in NGAL reporter ES cells; type: cell-based, mouse; conditions: NGAL reporter ES cells exposed to stimulant; control conditions no detectable expression
Description: […]. […] […]. Verification of the germline-transmitted F1 mice. The targeted allele was PCR-amplified by using primers F2, and R3 which was from the 1 Kb DNA fragment replaced by a DTA-AMP^r cassette in the targeting construct.
NGAL targeting in mouse ES cells. The NGAL-targeting construct was electroporated into the KV1 ES cells, and the neomycin-resistant ES clones were PCR-screened for the targeted NGAL allele for homologous recombination. Additionally, ES cells containing the NGAL di-fusion gene were challenged with either cisplatin or LPS to induce NGAL reporter activity (FIG. 1B, Panel D). ES cells with a Luc2-mCherry-LNL knockin allele were microinjected into wild-type C57B6 blastocysts to generate chimera which were subsequently mated with albino C57B6 female mice for germline transmission. The F1 mice were PCR-genotyped by using primers F1, R1 and R2, and the germline transmitted mice contained both targeted and wild type alleles (FIG. 1B, Panel C).
Luciferase (pGL4.10[luc2], Promega E6651) and mCherry (pmCherry [mC], Clontech 632522) genes separated by a 42 by spacer were ligated by overlap PCR and validated in 293T cells using a CMV promoter to drive robust Luc2 and mC bioluminescence and fluorescence (FIG. 1A, Panel A). […]

NGAL-Luc2/mC reporter = assay: In vivo bioluminescence imaging of NGAL di-fusion reporter mouse after LipidA; conditions: for NGAL activity assayed by luciferase (Luc2/mC response): kidney, liver, spleen, skin and lung, 24 hours after lipidA i.p. at 5, 15 and 30 mg/kg
Description: Bioluminescence and Fluorescence Imaging of mCherry and luciferase Expression in Living Mice and primary cell lines. For in vivo bioluminescence imaging, mice were anesthetized, and injected with 150 mg/kg of luciferin in PBS (pH 7) via IP injection that is allowed to distribute in awake animals for about 10 minutes. […]. Mice are then placed in a light tight chamber equipped with a halogen light source, and whole body image was acquired for 30 seconds using the Xenogen IVIS optical imaging system with a block excitation filter and a block emission filter for NGAL-mCherry visualization and an open emission filter for NGAL-luciferase activity. Regions of interest (ROIs) were drawn on the dorsal side of the animal and quantified by using Living Image Software version 3.1. Counts detected in the ROIs by the CCD camera digitizer can by converted to physical units of radiance in photons/s/cm2/steradian. Visualization of NGAL di-fusion reporter activity in primary cells were also assayed in the bioimager. NGAL reporter primary cells were first imaged for mCherry activity with block excitation and block emission and NGAL-luciferase activity was quantified by detection of light emitted after cell lysis and incubation with luciferin.

NGAL message [3] = assay: NGAL message (real-time PCR) in kidney after LipidA; type: in vivo, mouse; conditions: 30 mg/kg LipidA
Description: (§1) Real-Time PCR were prepared according to Bio-Rad SYBR GREEN, iCyclerMyiQ protocols. Target genes, including Ngal, β-actin, utilized respectively: Ngal 116 forward primer 5′-[…]-3′ and NGALa593 reverse 5′-[…]-3′; β-actin415 forward primer 5′-[…]-3′ and β-actin 696 reverse primer 5′-[…]-3′. The ΔΔCT method was used to calculate fold amplification of transcripts.
as §1, with “Real Time” for “Real-Time”, “PCR analysis. Samples” for “PCR”, “processed” for “prepared”, “genes” for “genes, including Ngal, β-actin,”

[4] = type: in vivo, mouse
Description: Identification of Hidden Damage. Serum creatinine was little changed in our model of unilateral ischemia, because the untouched contralateral kidney limited the opportunity for azotemia.

NGAL message [5] = assay: Ngal in situ hybridization of kidney after lipidA challenge; type: in vivo, mouse; conditions: after LipidA treatment
Description: In situ hybridization. NGAL RNA was detected using digoxigenin-labeled antisense riboprobes generated from cDNAs encoding Ngal (exon 1-7, 566 bp) by linearization with XhoI followed by T7 RNA polymerase. Kidneys were collected in ice-cold PBS and fixed overnight at 4° C. in 4% paraformaldehyde (PFA) in 0.1 M phosphate buffer saline (PBS), briefly quenched in 50 mM NH4Cl, cryoprotected overnight in 30% sucrose PBS and embedded and sectioned ([…]) in O.C.T. compound. The sections were post-fixed in 4% PFA for 10 min, treated with proteinase K (1 mg/ml for 3 min), acetylated and prehybridized for 2 hrs, and then hybridized at 68-72° C. overnight. The prehybridization and hybridization solution was 50% formamide, 5′SSC, 5′ Denhardts, […] baker's yeast RNA (Sigma), and […] herring sperm DNA (Sigma). Sections were washed at 72° C. in 5′SSC for 5-10 minutes, then at 72° C. in 0.2′SSC for 1 hour and then stained overnight (4° C.) with an anti-digoxigenin antibody coupled with alkaline phosphatase (Boehringer-Mannheim), at a 1:5000 dilution in 0.1 M Tris-HCl, pH 7.5, 0.15 M NaCl, 1% heat inactivated goat serum. Alkaline phosphatase activity was detected using BCIP, NBT (Boehringer-Mannheim) with 0.25 mg/ml levamisole in a humidified chamber for 1-3 days in the dark. Sections were dehydrated and mounted in Permount (Fisher Scientific). […]

## NCC(=O)O.[CH+]=O.[CH+]=O.[CH+]=O.[Cl][Ru] [CORM-3, tricarbonylchloro(glycinato)ruthenium(II)]
[1]; given 1 hour before onset of ischemia, 24 hours after reperfusion
  Levels of plasma creatinine: significantly decreased

## CC(C)C[C@@H](C=O)NC(=O)[C@H](CC(C)C)NC(=O)[C@H](CC(C)C)NC(=O)OCc1ccccc1 [MG-132] (Cbz-Leu-Leu-Leu-aldehyde)
Nf-κβ signaling
  Tonic NGAL and Luc2/mC expression in testis: suppressed
Nf-κβ signaling; NGAL reporter mouse
  LipidA induced Luc/mC expression: reduced LipidA induced Luc/mC expression

## CN(C)CC(=O)Nc1ccc2[nH]c(=O)c3ccccc3c2c1 [PJ34]
PARP
  Local production of inflammatory mediators: modulates the local production of inflammatory mediators

## N.N.[Cl][Pt][Cl] [cisplatin]
[2]
  Response of primary reporter kidney cells (luciferase): direct effect on renal epithelia

## CC(=O)O[C@H]1C(=O)[C@@]2(C)[C@H]([C@H](OC(=O)c3ccccc3)[C@]3(O)C[C@H](OC(=O)[C@H](O)[C@@H](NC(=O)c4ccccc4)c4ccccc4)C(C)=C1C3(C)C)[C@]1(OC(C)=O)CO[C@@H]1C[C@@H]2O [taxol]
Cyst growth
  Cyst growth: limit cyst growth

## [C-]#[O+].[C-]#[O+].[C-]#[O+].[C-]#[O+].[C-]#[O+].[C-]#[O+].[Cl][Ru][Cl].[Cl][Ru][Cl] [tricarbonyldichlororuthenium(II) dimer]
[1]; in vivo
  Levels of plasma creatinine: significantly decreased

## Cobalt
NGAL expression
  NGAL expression: trigger NGAL expression

## LipidA
NGAL reporter ES cells
  NGAL-luciferase activity: induced NGAL-luciferase activity
NGAL-Luc2/mC reporter
  NGAL activity assayed by luciferase (Luc2/mC response): graded Luc-mC response
NGAL-Luc2/mC reporter; listed as lipidA
  NGAL activity assayed by luciferase (Luc2/mC response): upregulated and dose dependent
NGAL-Luc2/mC reporter; same mice at a later time after volume depletion
  Luc/mC induction, positive control: effectively induced Luc/mC
NGAL message [3]
  NGAL message induced in the kidney: 30 fold
[4]; 30 mg/kg dose of LipidA
  Azotemia: induced Luc/mC and azotemia
[4]; low doses of LipidA (Luc/mC still induced)
  Azotemia / serum creatinine: without azotemia or a change in serum creatinine
[2]
  Response of primary reporter kidney cells (luciferase): responded in dose-dependent manner
NGAL message [5]
  Localisation of Ngal expression in kidney: predominate expression in inner medullary tubules
NGAL message [5]; listed as lipidA
  Localisation of Ngal expression in kidney: expressed in tubules
